Assay results as given in US7605265B2, “Heterodimers and methods of using them” (priority 2007, dated 2009).

What was measured:
[1] = system: scopolamine-induced memory impaired rats; assay: Morris water maze, scopolamine-induced memory impairment; type: in vivo, rat; settings: for spatial bias: scopolamine 0.1 mg/kg; for spatial bias (% of total distance swum in the training quadrant during spatial probe trial): memory-impaired rats, FIG. 4d-4f; for escape latency: 4 days
Procedure: The Morris water maze consists of a water pool with a hidden, submerged escape platform. The rats must learn, over a period of consecutive days, the location of the platform using either contextual or local cues. The time taken to locate the hidden platform (escape latency) is a measure of the animal's cognitive abilities.
(§1) Scopolamine (0.1 mg/kg) was first i.p. administered to young adult rats to impair their memories. Scopolamine-induced memory impaired rats were then orally administered one of three different doses of compound B (0.025, 0.050, or 0.100 mg/kg) and subjected to the Morris water maze over a period of 4 days. On each day, the time taken for the rats to detect the hidden platform in the water maze was measured, in seconds.
as §1, with “C (0.1, 0.2,” for “B (0.025, 0.050,”, “0.4” for “0.100”
as §1, with “A (0.1, 0.2,” for “B (0.025, 0.050,”, “0.4” for “0.100”
A spatial bias (% of total distance swum in the training quadrant during spatial probe trial) for the region of the apparatus where the platform was positioned during training was also measured for compounds B and C.
The spatial bias for the region of the testing apparatus where the hidden platform was positioned during training was measured. […] Tacrine (THA) was included for comparison purposes.

rat cortical neurons = assay: NMDA survival assay (LDH release) in cortical neurons; type: cell-based; settings: DIV11 rat cortical neurons, NMDA 20 μM, compound 0.001-10 μg/mL, LDH at 24 hr; FIG. 3
Procedure: The compounds were subjected to NMDA survival assays to investigate their ability to prevent NMDA receptor-induced excitotoxicity. The NMDA survival assay was performed to measure the degree of protection provided to cortical neuronal cells when treated with the compounds prior to an ischemic insult.
DIV10 cortical neurons were treated with NMDA (20 μM) in the presence of compound (cpd) B or C (μg/mL). LDH release in the medium was detected at 24 hr after treatment. DMSO was used as the solvent control, while MK-801 (10 μM) is a known NMDA antagonist.
DIV11 rat cortical neurons were treated with NMDA (20 μM) in the absence or presence of compounds (MK-801, 10 μM; compound A, 0.001-10 μg/mL). LDH release in the medium was detected at 24 hr after treatment. DMSO was used as the solvent control.

NMDA receptor = target: T1, NMDA receptor (Rattus norvegicus, UniProt P35439); assay: Whole cell patch clamp, NMDA-induced current in hippocampal neurons; type: cell-based; settings: DIV10-14 rat hippocampal neurons, NMDA 50 μM, compound 10 μg/mL; FIG. 1
T1 construct: Hippocampal neurons from embryonic day 18 rats were isolated, trypsinized, plated onto 35-mm plates; endogenous in cells; host or cells: primary hippocampal neurons from embryonic day 18 rats, DIV10-14
Procedure: The NMDA receptor is a gated ion channel, which allows inflow of current during a nerve impulse. Antagonists to the receptor would prevent the inflow of current. Memantine, a known NMDA antagonist was used as the positive control.
Hippocampal neurons from embryonic day 18 rats were isolated, trypsinized, plated onto 35-mm plates at a density of 3×10^4 cells/plate and cultured in Neurobasal medium (NB) supplemented with B27 nutrient. DIV10-14 rat hippocampal neurons were treated with NMDA (50 μM) in the absence or presence of the novel compounds (Cpd A, B and C) (10 μg/mL). Data is presented as % of NMDA-induced current. DMSO is the solvent control.

What does the source list for `O=c1ccc2c([nH]1)CCC(NCCCNc1c3c(nc4cc(Cl)ccc14)CCCC3)C2` (centres unmarked) [Compound A]?
scopolamine-induced performance deficits (escape latency) ([1]; 0.2 and 0.4 mg/kg orally, scopolamine 0.1 mg/kg i.p., FIG. 4c): significantly reversed scopolamine-induced performance deficits; spatial bias ([1]; 0.2 and 0.4 mg/kg, FIG. 4e, 4f): spatial bias close to control levels; spatial bias (% of total distance swum in the training quadrant during spatial probe trial) [1]: significantly increased spatial bias; protection against NMDA insults (LDH release) (rat cortical neurons): capable of protecting cortical neurons against NMDA insults; NMDA-induced current (NMDA receptor): decreased NMDA-induced current in hippocampal neurons

For `O=c1ccc2c([nH]1)CCCC2NCCCCCCCNc1c2c(nc3cc(Cl)ccc13)CCCC2` (centres unmarked) [Compound B], which escape latency ([1]; 0.1 mg/kg orally, scopolamine 0.1 mg/kg i.p., FIG. 4a) is on record?
Its escape latency is “reversed the increased escape latency induced by scopolamine”.

What about the spatial bias ([1]; 0.05 and 0.1 mg/kg p.o., FIG. 4d) of the same compound?
Its spatial bias is “spatial bias close to control levels”.

And the “spatial bias (% of total distance swum in the training quadrant during spatial probe trial)” value [1]?
Its value is “significantly increased spatial bias”.

What about the NMDA-induced current (NMDA receptor) of the same compound?
The NMDA-induced current was “decreased NMDA-induced current in hippocampal neurons”.

Which “escape latency, compared with tacrine” value ([1]; 0.2 mg/kg and 0.4 mg/kg vs 1.5 mg/kg tacrine (THA)) does the source give for `O=c1ccc2c([nH]1)CCCC2NCCCCCCCCNc1c2c(nc3cc(Cl)ccc13)CCCC2` (centres unmarked) [Compound C] here?
Its value is “more effective that 1.5 mg/kg tacrine”.

What about the escape latency ([1]; 0.4 mg/kg orally, scopolamine 0.1 mg/kg i.p., FIG. 4b) of the same compound?
The escape latency was “significantly reversed the increased escape latency induced by scopolamine”.

What about the spatial bias ([1]; 0.2 and 0.4 mg/kg, FIG. 4e, 4f) of the same compound?
The spatial bias was “spatial bias close to control levels”.

And the “spatial bias (% of total distance swum in the training quadrant during spatial probe trial)” value [1]?
Its value is “significantly increased spatial bias”.

And the NMDA-induced current (NMDA receptor)?
Its NMDA-induced current is “decreased NMDA-induced current in hippocampal neurons”.
